The target of assay [1] is T1, 4-galactosyl-N-acetylglucosaminide 3-alpha-L-fucosyltransferase FUT6 (Homo sapiens, UniProt P51993).
T1 sequence (P51993 whole entry): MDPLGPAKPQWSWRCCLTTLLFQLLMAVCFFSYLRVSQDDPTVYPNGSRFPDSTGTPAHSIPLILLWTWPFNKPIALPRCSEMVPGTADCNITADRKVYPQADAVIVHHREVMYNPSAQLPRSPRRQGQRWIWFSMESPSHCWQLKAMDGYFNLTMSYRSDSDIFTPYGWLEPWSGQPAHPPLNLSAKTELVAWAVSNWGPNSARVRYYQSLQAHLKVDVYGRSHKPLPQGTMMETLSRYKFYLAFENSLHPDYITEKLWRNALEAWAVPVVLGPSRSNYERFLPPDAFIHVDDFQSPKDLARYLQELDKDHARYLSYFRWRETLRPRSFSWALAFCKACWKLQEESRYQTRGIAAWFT
Briefly: Inhibitory concentration required against Fucosyltransferase 6.

Assay [2] deals with T1, 4-galactosyl-N-acetylglucosaminide 3-alpha-L-fucosyltransferase FUT6. Briefly: Compound was tested for binding affinity against Fucosyltransferase 6.

The source of these data is ChEMBL document CHEMBL1146644, “High-throughput identification of fucosyltransferase inhibitors using carbohydrate microarrays” (Bioorg Med Chem Lett, 2004).

With `Nc1nc2c(ncn2C2O[C@H](COP(=O)(O)OP(=O)(O)OCc3cn(CCCC(=O)NC(Cc4ccccc4)c4ccccc4)nn3)[C@@H](O)[C@H]2O)c(=O)[nH]1` (stereo not given in full), inhibition in assay [1] was half-maximal at 3960 nM (IC50). Also, in assay [2], the Ki (commonly the dissociation constant of the complex between target and ligand, obtained from inhibition or displacement) amounted to 1070 nM.
As to `Nc1nc(O)c2ncn(C3O[C@H](COP(=O)(O)OP(=O)(O)OCc4cn(CCCCC(=O)NC(Cc5ccccc5)c5ccccc5)nn4)[C@@H](O)[C@H]3O)c2n1` (stereo not given in full), in assay [1], the IC50 (as a rule, the point on the concentration scale where inhibition reaches its midpoint) was 1390 nM. Besides, affinity in assay [2] was put at a Ki of 376 nM.
For `Nc1nc(O)c2ncn(C3O[C@H](COP(=O)(O)OP(=O)(O)OCc4cn(CCCCC(=O)NC5=CC6C(=O)c7ccccc7C(=O)C6C=C5)nn4)[C@@H](O)[C@H]3O)c2n1` (stereo not given in full) the same measures were 1890 nM and 511 nM.
For `Nc1nc(O)c2ncn(C3O[C@H](COP(=O)(O)OP(=O)(O)OCc4cn(CC(=O)NC(Cc5ccccc5)c5ccccc5)nn4)[C@@H](O)[C@H]3O)c2n1` (stereo not given in full) the same measures were 1620 nM and 437 nM.
On the same counts, the results for `Nc1nc2c(ncn2C2O[C@H](COP(=O)(O)OP(=O)(O)OCc3cn(CCC(=O)NCc4cccc5ccccc45)nn3)[C@@H](O)[C@H]2O)c(=O)[nH]1` (stereo not given in full) are 3340 nM and 901 nM.
